Data from patent EP1585727B1, “INDOLES USEFUL IN THE TREATMENT OF ANDROGEN-RECEPTOR RELATED DISEASES” (priority 2002, dated 2004).
Where two headings read alike, the source gives them in different places.

Biological target: T1, human androgen receptor (Homo sapiens, UniProt P10275)
T1 construct: expressed in transfected cells; host or cells: Chinese hamster ovary (CHO) cells, cell line CHO-AR-pMMTV-LUC 1G12-A5-CA
T1 sequence (P10275 1-920): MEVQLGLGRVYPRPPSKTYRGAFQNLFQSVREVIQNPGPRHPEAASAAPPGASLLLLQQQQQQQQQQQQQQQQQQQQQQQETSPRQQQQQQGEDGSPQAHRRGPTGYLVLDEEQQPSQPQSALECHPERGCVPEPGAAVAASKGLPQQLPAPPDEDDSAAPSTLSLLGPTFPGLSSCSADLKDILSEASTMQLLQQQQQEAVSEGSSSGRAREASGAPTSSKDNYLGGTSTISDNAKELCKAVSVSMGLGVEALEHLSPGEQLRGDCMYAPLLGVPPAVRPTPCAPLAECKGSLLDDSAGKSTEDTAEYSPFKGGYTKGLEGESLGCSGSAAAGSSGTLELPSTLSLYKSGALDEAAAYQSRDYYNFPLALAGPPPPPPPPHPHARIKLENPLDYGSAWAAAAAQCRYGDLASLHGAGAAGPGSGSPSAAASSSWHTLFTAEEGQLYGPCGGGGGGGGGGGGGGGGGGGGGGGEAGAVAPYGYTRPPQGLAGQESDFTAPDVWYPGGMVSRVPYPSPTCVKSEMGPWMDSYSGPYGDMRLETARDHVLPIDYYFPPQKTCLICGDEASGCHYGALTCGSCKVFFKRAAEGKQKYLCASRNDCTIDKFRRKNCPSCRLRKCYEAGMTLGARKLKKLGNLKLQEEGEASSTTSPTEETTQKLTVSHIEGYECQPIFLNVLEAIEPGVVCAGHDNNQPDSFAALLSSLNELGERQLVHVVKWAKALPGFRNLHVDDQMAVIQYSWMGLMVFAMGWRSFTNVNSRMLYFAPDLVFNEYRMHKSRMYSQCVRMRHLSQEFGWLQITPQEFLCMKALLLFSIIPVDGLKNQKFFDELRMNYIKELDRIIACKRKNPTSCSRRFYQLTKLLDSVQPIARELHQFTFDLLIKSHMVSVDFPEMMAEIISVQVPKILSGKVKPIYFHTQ
Test: Androgen receptor transactivation assay, antiandrogenic activity: inhibition of transactivation in the presence of 1 nM DHT (CHO-AR-pMMTV-LUC cells; Table 4)
Type: cell-based
Settings: intrinsic activity relative to reference antiandrogen Hydroxyflutamide (set at 100%)
Experimental: Compounds were tested for their Androgen Receptor activity in a transactivation assay and in a binding assay.
The (anti-)androgenic activity of test compounds (EC50 and intrinsic activity) was determined in an in vitro bioassay of Chinese hamster ovary (CHO) cells stably transfected with the human androgen receptor expression plasmid and a reporter plasmid in which the MMTV-promoter is linked to the luciferase reporter gene. The cell-line CHO-AR-pMMTV-LUC 1G12-AS-CA is described in Schoonen et al. (2000), Journal of Steroid Biochemistry and Molecular Biology 74(4):213-222. The antiandrogenic activity of a test compound was determined by the inhibition of the transactivation via the androgen receptor of the enzyme luciferase in the presence of 1 nM DHT (5 α-dihydrotestosterone, 17β-hydroxy-5α-androstan-3-one). Intrinsic activity of antiandrogenic activity was determined in the presence of the reference antiandrogen 2-Hydroxy-2-methyl-N-(4-nitro-3-trifluoromethyl-phenyl)-propionamide (Hydroxyflutamide), and set at 100%. For androgenic activity, maximal intrinsic activity in the presence of 100 nM DHT was set at 100%. Table 4 Androgen receptor activity

[1] = in the presence of 1 nM DHT, read-out: ant efficacy
[2] = read-out: ant efficacy, in the presence of 1 nM DHT

Row | Structure (SMILES) | Emax [1] [%] | Emax [2] [%]
1 | NC(=O)c1ccc2c(Sc3ccccc3[N+](=O)[O-])cn(Cc3cc(F)cc(F)c3)c2c1 [Compound 33, 1-(3,5-Difluoro-benzyl)-3-(2-nitro-phenylsulfanyl)-1H-indole-6-carboxylic acid amide] | < 20 | 
2 | O=[N+]([O-])c1ccccc1Sc1cn(Cc2cc(F)cc(F)c2)c2cccc(Cl)c12 [Compound 54] | < 20 | 
3 | O=[N+]([O-])c1ccc2c(Sc3ccccc3[N+](=O)[O-])cn(Cc3cc(F)cc(F)c3)c2c1 [Compound 60] |  | < 20
4 | CNC(=O)c1ccccc1Sc1cn(Cc2cc(F)cc(F)c2)c2cc(OC)ccc12 [Compound 17, 2-[1-(3,5-Difluoro-benzyl)-6-methoxy-1H-indol-3-ylsulfanyl]-N-methyl-benzamide] | 50 to 80 | 
5 | COc1ccc2c(Sc3ccccc3[N+](=O)[O-])cn(Cc3cccc(C(F)(F)F)c3)c2c1 [Compound 78] | < 20 | 
6 | COc1ccc2c(Sc3ccccc3[N+](=O)[O-])cn(Cc3csc(C)n3)c2c1 [Compound 79] | < 20 | 
7 | COC(=O)CNC(=O)c1ccc2c(Sc3ccccc3[N+](=O)[O-])cn(Cc3cc(F)cc(F)c3)c2c1 [Compound 39] | < 20 | 
8 | CNC(=O)c1ccc2c(Sc3ccccc3[N+](=O)[O-])cn(Cc3cc(F)cc(F)c3)c2c1 [Compound 47, 1-(3,5-Difluoro-benzyl)-3-(2-nitro-phenylsulfanyl)-1H-indole-6-carboxylic acid methylamide] | < 20 | 
9 | O=[N+]([O-])c1ccccc1Sc1cn(Cc2cc(F)cc(F)c2)c2cc(C(F)(F)F)ccc12 [Compound 23] | < 20 | 
10 | O=C(NCc1ccco1)c1ccc2c(Sc3ccccc3[N+](=O)[O-])cn(Cc3cc(F)cc(F)c3)c2c1 [Compound 34] | < 20 | 
11 | COc1ccc2c(Sc3ccccc3C#N)cn(Cc3cc(F)cc(F)c3)c2c1 [Compound 20, 2-[1-(3,5-Difluoro-benzyl)-6-methoxy-1H-indol-3-ylsulfanyl]-benzonitrile] | < 20 | 
12 | O=[N+]([O-])c1ccccc1Sc1cn(Cc2cc(F)cc(F)c2)c2cc(Cl)ccc12 [Compound 25] | < 20 | 
13 | O=[N+]([O-])c1ccccc1Sc1cn(Cc2cc(F)cc(F)c2)c2cc(Br)ccc12 [Compound 22] | < 20 | 
14 | CN(C)C(=O)c1ccc2c(Sc3ccccc3[N+](=O)[O-])cn(Cc3cc(F)cc(F)c3)c2c1 [Compound 49] | < 20 | 
15 | COc1ccc2c(Sc3ccccc3[N+](=O)[O-])cn(Cc3ccccc3[N+](=O)[O-])c2c1 [Compound 8] |  | < 20
16 | CCN(CC)C(=O)c1ccc2c(Sc3ccccc3[N+](=O)[O-])cn(Cc3cc(F)cc(F)c3)c2c1 [Compound 32] |  | 20 to 50
17 | COc1ccc2c(Sc3ccccc3[N+](=O)[O-])cn(Cc3ccc(Cl)c(C(F)(F)F)c3)c2c1 [Compound 76] | < 20 | 
18 | COc1ccc2c(Sc3cccc[n+]3[O-])cn(Cc3cc(F)cc(F)c3)c2c1 [Compound 66] | 20 to 50 | 
19 | COc1ccc2c(Sc3ccccc3[N+](=O)[O-])cn(Cc3ccccc3F)c2c1 [Compound 5] | < 20 | 
20 | CC(C)CNC(=O)c1ccc2c(Sc3ccccc3[N+](=O)[O-])cn(Cc3cc(F)cc(F)c3)c2c1 [Compound 42] | < 20 | 
21 | COc1ccc2c(Sc3ccccc3[N+](=O)[O-])cn(Cc3cccc(OC(F)(F)F)c3)c2c1 [Compound 77] | < 20 | 
22 | COCCNC(=O)c1ccc2c(Sc3ccccc3[N+](=O)[O-])cn(Cc3cc(F)cc(F)c3)c2c1 [Compound 38] | < 20 | 
23 | COc1ccc2c(Sc3ccccc3[N+](=O)[O-])cn(Cc3cccc(Cl)c3)c2c1 [Compound 67] | < 20 | 
24 | COc1ccc2c(Sc3ccccc3[N+](=O)[O-])cn(CC3CCCCC3)c2c1 [Compound 89] |  | 20 to 50
25 | CCNC(=O)c1ccc2c(Sc3ccccc3[N+](=O)[O-])cn(Cc3cc(F)cc(F)c3)c2c1 [Compound 45] | < 20 | 
26 | COc1ccc2c(Sc3ccccc3[N+](=O)[O-])cn(Cc3ccc(F)cc3)c2c1 [Compound 83] | < 20 | 

Row | Structure (SMILES) | Emax [1] [%] | Emax [2] [%]
27 | COc1ccc2c(Sc3ccccc3[N+](=O)[O-])cn(Cc3cc(F)ccc3F)c2c1 [Compound 1] | < 20 | 
28 | COc1ccc2c(Sc3ccccc3[N+](=O)[O-])cn(Cc3cc(F)cc(F)c3)c2c1 [Compound 63, 1-(3,5-Difluoro-benzyl)-6-methoxy-3-(2-nitro-phenylsulfanyl)-1H-indole] | < 20 | 
29 | COc1ccc2c(Sc3ccccc3[N+](=O)[O-])cn(Cc3ccccc3C(F)(F)F)c2c1 [Compound 12] | < 20 | 
30 | O=C(NCc1ccccc1)c1ccc2c(Sc3ccccc3[N+](=O)[O-])cn(Cc3cc(F)cc(F)c3)c2c1 [Compound 43] |  | 20 to 50
31 | COc1ccc2c(Sc3ccccc3[N+](=O)[O-])cn(Cc3cccnc3)c2c1 [Compound 75] | < 20 | 
32 | O=[N+]([O-])c1ccccc1Sc1cn(Cc2cc(F)cc(F)c2)c2cc(CO)ccc12 [Compound 24] | < 20 | 
33 | COC(=O)c1ccc2c(Sc3ccccc3[N+](=O)[O-])cn(Cc3cc(F)cc(F)c3)c2c1 [Compound 31, 1-(3,5-Difluoro-benzyl)-3-(2-nitro-phenylsulfanyl)-1H-indole-6-carboxylic acid methyl ester] | < 20 | 
34 | CN1CCN(C(=O)c2ccc3c(Sc4ccccc4[N+](=O)[O-])cn(Cc4cc(F)cc(F)c4)c3c2)CC1 [Compound 29] | < 20 | 
35 | O=C(c1ccc2c(Sc3ccccc3[N+](=O)[O-])cn(Cc3cc(F)cc(F)c3)c2c1)N1CCOCC1 [Compound 28] | < 20 | 
36 | COC(=O)c1ccccc1Sc1cn(Cc2cc(F)cc(F)c2)c2cc(OC)ccc12 [Compound 19, 2-[1-(3,5-Difluoro-benzyl)-6-methoxy-1H-indol-3-ylsulfanyl]-benzoic acid methyl ester] | < 20 | 
37 | COc1ccc2c(Sc3ccccc3[N+](=O)[O-])cn(Cc3cnc(Cl)s3)c2c1 [Compound 87] | < 20 | 
38 | CC(=O)Nc1ccc2c(Sc3ccccc3[N+](=O)[O-])cn(Cc3cc(F)cc(F)c3)c2c1 [Compound 58, N-[1-(3,5-Difluoro-benzyl)-3-(2-nitro-phenylsulfanyl)-1H-indol-6-yl]-acetamide] | < 20 | 
39 | COc1ccc2c(Sc3ccccc3[N+](=O)[O-])cn(Cc3cccc(C#N)c3)c2c1 [Compound 68] | < 20 | 
40 | COc1ccc2c(Sc3ccccc3[N+](=O)[O-])cn(Cc3cccc([N+](=O)[O-])c3C)c2c1 [Compound 6] |  | < 20
41 | COc1ccc2c(Sc3ccccc3[N+](=O)[O-])cn(Cc3ccc(Cl)c(Cl)c3)c2c1 [Compound 14] | < 20 | 
42 | COc1ccc2c(Sc3ccccc3[N+](=O)[O-])cn(Cc3ccccc3C)c2c1 [Compound 7] | < 20 | 
43 | COc1ccc2c(Sc3ccccc3[N+](=O)[O-])cn(Cc3cc(F)cc(C(F)(F)F)c3)c2c1 [Compound 69] | < 20 | 
44 | COc1ccc2c(Sc3ccccc3[N+](=O)[O-])cn(Cc3ccc(C#N)cc3)c2c1 [Compound 82] | < 20 | 
45 | O=C(NCc1cccnc1)c1ccc2c(Sc3ccccc3[N+](=O)[O-])cn(Cc3cc(F)cc(F)c3)c2c1 [Compound 35] | < 20 | 
46 | COc1ccc2c(Sc3ccccc3[N+](=O)[O-])cn(Cc3cccc(C)c3)c2c1 [Compound 73] | < 20 | 
47 | COc1ccc2c(Sc3ccccc3[N+](=O)[O-])cn(Cc3ccc(Cl)cc3)c2c1 [Compound 81] | 50 to 80 | 
48 | Nc1ccc2c(Sc3ccccc3[N+](=O)[O-])cn(Cc3cc(F)cc(F)c3)c2c1 [Compound 57, 1-(3,5-Difluoro-benzyl)-3-(2-nitro-phenylsulfanyl)-1H-indol-6-ylamine] | < 20 | 
49 | COc1ccc2c(Sc3ccccn3)cn(Cc3cc(F)cc(F)c3)c2c1 [Compound 65, 1-(3,5-Difluoro-benzyl)-6-methoxy-3-(pyridin-2-ylsulfanyl)-1H-indole] | < 20 | 
50 | CCCNC(=O)c1ccc2c(Sc3ccccc3[N+](=O)[O-])cn(Cc3cc(F)cc(F)c3)c2c1 [Compound 48] |  | 20 to 50
51 | COc1ccc2c(Sc3ccccc3[N+](=O)[O-])cn(Cc3cccc(C)c3F)c2c1 [Compound 2] | < 20 | 
